Laboratory results reported in the NIST ThermoML archive (doi:10.1021/je049579x).
Where “and” joins values, the source holds several entries; their conditions need not be identical. Equal values may be shown once.

Details: Crystal, Torsion effusion method

[I][Lu]([I])[I] [lutetium triiodide]
Details	vapor or sublimation pressure
862 K	3e-05 kPa
875 K	6e-05 kPa
883 K	7.6e-05 kPa
888 K	8.9e-05 kPa
892 K	7.6e-05 kPa
893 K	0.000105 kPa
894 K	0.00012 kPa
895 K	0.00012 kPa
896 K	0.000151 kPa
897 K	0.00012 kPa
898 K	0.000151 kPa
899 K	0.000151 kPa
900 K	0.000105 kPa
901 K	0.00012 kPa
904 K	0.000151 kPa and 0.000182 kPa
905 K	0.000182 kPa
906 K	0.000224 kPa and 0.000166 kPa
909 K	0.000209 kPa and 0.000151 kPa and 0.000166 kPa
911 K	0.00024 kPa and 0.000195 kPa
912 K	0.000209 kPa
913 K	0.00024 kPa
915 K	0.000269 kPa
916 K	0.000302 kPa and 0.00024 kPa
917 K	0.000347 kPa
918 K	0.00024 kPa
919 K	0.000209 kPa
920 K	0.000269 kPa and 0.000288 kPa
921 K	0.000331 kPa
923 K	0.000372 kPa
924 K	0.000363 kPa
926 K	0.000269 kPa and 0.000447 kPa
927 K	0.000347 kPa
928 K	0.000513 kPa and 0.000363 kPa and 0.000389 kPa
929 K	0.000389 kPa
931 K	0.000513 kPa
932 K	0.000501 kPa
933 K	0.000575 kPa
935 K	0.000537 kPa
936 K	0.000513 kPa
937 K	0.000513 kPa
938 K	0.000724 kPa [middle of 4 runs]
940 K	0.000692 kPa
942 K	0.000759 kPa
943 K	0.000759 kPa and 0.000692 kPa
945 K	0.000692 kPa and 0.000575 kPa and 0.000724 kPa
948 K	0.001047 kPa and 0.000776 kPa
949 K	0.000933 kPa
950 K	0.001023 kPa
951 K	0.001072 kPa and 0.000891 kPa
952 K	0.001122 kPa
953 K	0.000933 kPa
954 K	0.001 kPa
955 K	0.000832 kPa
958 K	0.001413 kPa and 0.001445 kPa and 0.001148 kPa
959 K	0.001445 kPa and 0.00123 kPa
960 K	0.001514 kPa
961 K	0.001479 kPa
962 K	0.001349 kPa
963 K	0.001413 kPa
964 K	0.00123 kPa
967 K	0.00195 kPa and 0.001622 kPa
968 K	0.002239 kPa and 0.001995 kPa
969 K	0.001622 kPa
970 K	0.002138 kPa
972 K	0.001905 kPa and 0.002239 kPa and 0.00182 kPa
974 K	0.001738 kPa
975 K	0.002138 kPa
976 K	0.002951 kPa and 0.00257 kPa
977 K	0.002884 kPa and 0.002138 kPa
978 K	0.002455 kPa
979 K	0.002291 kPa and 0.002951 kPa
983 K	0.002951 kPa and 0.002399 kPa
985 K	0.003631 kPa and 0.003162 kPa and 0.003236 kPa
986 K	0.003981 kPa and 0.003715 kPa
987 K	0.00302 kPa
991 K	0.004266 kPa
993 K	0.004677 kPa and 0.00389 kPa
994 K	0.004074 kPa and 0.003388 kPa and 0.004169 kPa
995 K	0.005012 kPa and 0.003631 kPa
996 K	0.005012 kPa
1004 K	0.00631 kPa and 0.005623 kPa

[Br][Yb]([Br])[Br] [ytterbium tribromide]
Details	vapor or sublimation pressure
891 K	4.7e-05 kPa
897 K	7.9e-05 kPa and 6.3e-05 kPa
905 K	9.3e-05 kPa and 6.3e-05 kPa
906 K	0.000126 kPa
909 K	0.00011 kPa
912 K	7.9e-05 kPa
913 K	0.00011 kPa
915 K	0.000158 kPa
916 K	0.000158 kPa
920 K	0.000126 kPa
923 K	0.000158 kPa and 0.000219 kPa
924 K	0.000219 kPa
926 K	0.000219 kPa
928 K	0.000191 kPa
929 K	0.000158 kPa
932 K	0.000316 kPa
933 K	0.000316 kPa
934 K	0.000347 kPa
936 K	0.000251 kPa and 0.000219 kPa
937 K	0.000347 kPa
938 K	0.000282 kPa
940 K	0.000427 kPa
942 K	0.000437 kPa
943 K	0.000468 kPa
945 K	0.000468 kPa and 0.000331 kPa
946 K	0.000347 kPa
947 K	0.00038 kPa
948 K	0.000562 kPa
952 K	0.000631 kPa
953 K	0.000692 kPa
954 K	0.000631 kPa
955 K	0.000525 kPa
956 K	0.000537 kPa and 0.000501 kPa
958 K	0.000794 kPa
963 K	0.000851 kPa
964 K	0.000933 kPa
965 K	0.000759 kPa [middle of 4 runs]
969 K	0.001122 kPa
972 K	0.001175 kPa
973 K	0.000977 kPa and 0.001259 kPa
974 K	0.000933 kPa and 0.00138 kPa
975 K	0.000977 kPa
978 K	0.001585 kPa
979 K	0.001122 kPa
980 K	0.001585 kPa
982 K	0.001698 kPa
983 K	0.00138 kPa
984 K	0.001349 kPa
985 K	0.001995 kPa
988 K	0.002042 kPa
990 K	0.002188 kPa
991 K	0.001622 kPa
992 K	0.001905 kPa
993 K	0.00257 kPa
994 K	0.001905 kPa
995 K	0.002754 kPa
997 K	0.002692 kPa
1000 K	0.002399 kPa
1002 K	0.002512 kPa
1003 K	0.003631 kPa
1006 K	0.003467 kPa
1008 K	0.004169 kPa
1009 K	0.003162 kPa
1012 K	0.003388 kPa
1013 K	0.004677 kPa
1018 K	0.003981 kPa
1021 K	0.004365 kPa and 0.00631 kPa
1022 K	0.006457 kPa
1026 K	0.005012 kPa
1032 K	0.005754 kPa
